Reference: patent US20140065241A1, “USES OF (-)-PERHEXILINE” (Adelaide Research & Innovation Pty Ltd, priority 2012, published 2014)

Experiments:
[1] = clinical use of racemic drug; cited from earlier work
[2] = system: rat isoprenaline model of heart failure; assay: Plasma troponin T in rat isoprenaline model of heart failure; assay type: in vivo; settings: DA rats; 2 weeks pre-treatment 200 mg/kg/day; isoprenaline 50 mg/kg i.p.; plasma 3 hr after
Procedure: The effect of racemic perhexyline, (+)-perhexyline and (−)-perhexyline on myocardial damage in a rat isoprenaline model of heart failure, using Troponin T as an indirect measure of myocardial damage was investigated. The use of a rat isoprenaline model of heart failure is as described in Teerlink, J R et al. (1994) “Progressive ventricular remodeling in response to diffuse isoproterenol-induced myocardial necrosis in rats” Circ Res, 75: 105-13.
DA rats were treated for 2 weeks with vehicle or 200 mg/kg/day of racemic, (+)- or (−)-perhexyline maleate, on day 15 myocardial necrosis was induced by i.p. injection of 50 mg/kg isoprenaline, with a second group of controls receiving an i.p. injection of saline (n=5). Cardiac troponin T levels were measured in plasma collected 3 hr following treatment by venipuncture of the tail vein.

TXNIP = assay: Myocardial TXNIP staining (immunohistochemistry) after isoprenaline; assay type: in vivo, rat; settings: DA rats; 2 weeks pre-treatment 200 mg/kg/day; isoprenaline 50 mg/kg
Description: CONT; *=P<0.05 c.f. ISO; ̂=P=0.05 c.f. ISO. […] T×NIP is a regulatory protein which couples substrate utilization and redox state. Increased expression of T×NIP is associated with increased oxidative stress, decreased insulin secretion, decreased glucose uptake and suppression of PPARα (a major nuclear transcription factor regulating lipid metabolism). Thus, both (−)-perhexyline and (+)-perhexyline may also exert cardioprotection via inhibition of T×NIP.

rat isoprenaline model = assay: Histological assessment of isoprenaline-induced myocardial injury; assay type: in vivo; settings: DA rats; 2 weeks pre-treatment 200 mg/kg/day; isoprenaline 50 mg/kg
Procedure: DA rats were treated for 2 weeks with vehicle or 200 mg/kg/day of racemic, (+)- or (−)-perhexyline maleate, on day 15 myocardial necrosis was induced by i.p. injection of 50 mg/kg isoprenaline, with a second group of controls receiving an i.p. injection of saline (n=5). Cardiac troponin T levels were measured in plasma collected 3 hr following treatment by venipuncture of the tail vein. […] The severity and extent of myocardial injury were assessed by a pathologist who was blinded to the treatment, and classified as: 0—no change; 1—mild (single mild focus of myocyte damage or multiple small foci with mild inflammatory cell infiltrate); 2—moderate (multiple larger foci of myocyte damage with moderate inflammatory cell infiltrate) and 3—severe (multiple larger foci of myocyte damage with severe inflammatory cell infiltrate or broad zone of necrosis with extensive inflammation). Results were analysed by dividing animals into two response groups 0-1: no or mild >1: moderate to severe.

Dark Agouti (DA) rats = assay: Histological (electron microscopy) assessment of hepatic lipid and glycogen content after 8 weeks of dosing; assay type: in vivo, rat; settings: for hepatic glycogen content / hepatic lipid content: 200 mg/kg daily for 8 weeks, vs vehicle, 200 mg/kg
Procedure: Adult female Dark Agouti (DA) rats (n=4 in each group) were administered 200 mg/kg daily of vehicle, racemic-, (+) or (−)-perhexyline maleate for a period of 2 months. The perhexyline maleate compound was administered mixed with peanut paste and coated onto standard rat chow. On day 56 of dosing, animals were anesthetized and blood was collected via a cardiac puncture in order to determine the concentrations of perhexyline enantiomers. Animals were then euthanized and hepatic, cardiac and neuronal tissues were harvested in order to determine perhexyline enantiomer and metabolite tissue concentrations and morphological changes. Tissues were cut in half and either immediately snap frozen in liquid nitrogen or placed into fixative solution for electron microscopy analysis. Tissue was dissected into cubes of approximately 0.5 mm in each dimension and was fixed for one hour in electron microscopy (EM) fixative (4% formaldehyde and 1.5% glutaraldehyde in sodium cacodylate buffer, pH 7.2). The fixed tissue was post-fixed in 2% osmium tetroxide in sodium cacodylate buffer, en bloc stained with 2% uranyl acetate and dehydrated through 70%, 90% and 100% ethanol. Then, the tissue was processed through 1,2-epoxypropane, a 50/50 mixture of 1,2-epoxypropane and Procure 812 resin (Electron Microscopy Sciences, Fort Washington, USA) and two changes of 100% resin. Tissue and resin were transferred to Beem capsules and placed in an oven overnight at 90° C. Survey sections of tissue blocks were cut with glass knives and stained with Toluidine Blue. Thin sections were cut at approximately 100 nm thickness on a Porter-Blum ultramicrotome (Sorvall, Newtown, USA) using a diamond knife (Micro Star Technologies, Huntsville, USA). Thin sections were stained with Reynolds' lead citrate and examined in a Hitachi H-600 transmission electron microscope (Tokyo, Japan 1983). Glycogen and lipids were identified and total content was measured as a percentage of the field of view.

[3] = Perhexyline enantiomer concentrations in plasma, liver and heart; assay type: in vivo, rat; settings: DA rats; for plasma concentration: pure enantiomer 200 mg/kg daily for 8 weeks
Procedure: Adult female Dark Agouti (DA) rats (n=4 in each group) were administered 200 mg/kg daily of vehicle, racemic-, (+) or (−)-perhexyline maleate for a period of 2 months. The perhexyline maleate compound was administered mixed with peanut paste and coated onto standard rat chow. On day 56 of dosing, animals were anesthetized and blood was collected via a cardiac puncture in order to determine the concentrations of perhexyline enantiomers. Animals were then euthanized and hepatic, cardiac and neuronal tissues were harvested in order to determine perhexyline enantiomer and metabolite tissue concentrations and morphological changes. Tissues were cut in half and either immediately snap frozen in liquid nitrogen or placed into fixative solution for electron microscopy analysis.
Plasma, liver and hear concentrations were measured in Dark Agouti rats treated for 8 weeks with 200 mg/kg/day of (+)-, (−)- or racemic-perhexyline (animals as described in Example 2) using the method of Davies et al., Journal of Chromatography B, 832 (2006) 114-120.
The data are shown in FIGS. 6A and 6B with concentrations adjusted to the equivalent of a 100 mg/kg enantiomeric dose.

human neutrophil NOX2 = target: T1, human neutrophil NOX2 (Homo sapiens, UniProt P04839); assay: Inhibition of ex vivo superoxide formation by NOX2 in human neutrophils; assay type: cell-based; settings: neutrophils from 11 healthy young volunteers
T1 construct: Using neutrophils from 11 healthy young volunteers; endogenous in cells; host or cells: human neutrophils from healthy volunteers
T1 sequence (P04839 2-570 limits assumed): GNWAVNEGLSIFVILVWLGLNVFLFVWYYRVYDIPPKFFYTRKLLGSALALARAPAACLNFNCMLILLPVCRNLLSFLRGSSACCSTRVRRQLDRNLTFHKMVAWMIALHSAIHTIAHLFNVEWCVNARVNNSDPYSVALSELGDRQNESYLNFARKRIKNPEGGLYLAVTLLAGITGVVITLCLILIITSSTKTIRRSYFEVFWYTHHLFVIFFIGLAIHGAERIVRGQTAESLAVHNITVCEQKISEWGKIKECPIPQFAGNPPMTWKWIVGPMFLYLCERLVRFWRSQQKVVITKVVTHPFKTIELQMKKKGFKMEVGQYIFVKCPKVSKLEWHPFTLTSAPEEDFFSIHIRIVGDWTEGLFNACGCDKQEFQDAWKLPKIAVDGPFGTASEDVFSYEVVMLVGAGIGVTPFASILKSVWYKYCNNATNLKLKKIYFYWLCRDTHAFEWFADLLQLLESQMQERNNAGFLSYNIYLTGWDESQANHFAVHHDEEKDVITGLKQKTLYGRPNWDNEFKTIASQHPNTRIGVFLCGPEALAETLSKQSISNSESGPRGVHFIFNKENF
T1 sequence (P13498 2-195 partner limits assumed): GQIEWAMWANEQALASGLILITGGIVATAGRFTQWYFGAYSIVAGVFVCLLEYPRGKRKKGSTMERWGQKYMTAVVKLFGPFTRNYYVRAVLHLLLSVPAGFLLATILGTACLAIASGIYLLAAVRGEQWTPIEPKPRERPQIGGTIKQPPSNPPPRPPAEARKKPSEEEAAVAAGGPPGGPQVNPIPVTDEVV
Description: As an index of anti-inflammatory and nitric oxide-sparing potential, the relative potency of the enantiomers as inhibitors of ex vivo superoxide formation by NOX2 was investigated in human neutrophils.
Whilst this enantioselectivity is consistent with different therapeutic indices for the enantiomers, it can be seen that both still contribute to perhexyline's anti-inflammatory effects.

Dark Agouti rats = assay: Peripheral neural function by von Frey filament testing (paw withdrawal threshold); assay type: in vivo, rat; settings: DA rats treated for 8 weeks, vs vehicle
Procedure: At 56 days, neuronal function was measured prior to euthanasia using von Frey filament testing. The thickness of each filament corresponds to a specific amount of pressure (in grams). Each animal was placed in a specifically designed plastic container, with the bottom replaced by mesh flooring. The animal was left for 10-15 minutes to settle into its new environment. In ascending order, von Frey filaments were applied from beneath the mesh flooring to the plantar surface of the paw until the filament buckled and was held there for a total of 10 seconds. A positive response was noted if the paw was withdrawn within the 10-second period. If a filament induced 6 positive responses, the grams corresponding to that filament were recorded as the paw withdrawal threshold.
To test the effect of each enantiomer on peripheral neural function, a Von Frey hairs model was used.

[4] = system: pyruvate dehydrogenase (PDH); assay: Total and phosphorylated pyruvate dehydrogenase in heart tissue by Western blots; assay type: in vivo; settings: DA rat heart; 2 weeks 200 mg/kg/day; isoprenaline 50 mg/kg
Procedure: DA rats were treated for 2 weeks with vehicle or 200 mg/kg/day of racemic, (+)- or (−)-perhexyline maleate, on day 15 myocardial necrosis was induced by i.p. injection of 50 mg/kg isoprenaline (HCl salt), with a second group of controls receiving an i.p. injection of saline (n=5-8). Total and phosphorylated pyruvate dehydrogenase in heart tissue was measured by Western blots.

[5] = 8 weeks 200 mg/kg/day, dose-adjusted

| Structure (SMILES) | plasma concentration at which severe adverse effects (hepatotoxicity, peripheral neuropathy) are typically seen [1] | recipients with adverse effects [1] | effect on isoprenaline-induced rise in plasma troponin T [2] | isoprenaline-induced increase in myocardial TXNIP staining (TXNIP) | isoprenaline-induced myocardial damage (histological score) (rat isoprenaline model) | hepatic glycogen content (Dark Agouti (DA) rats) | hepatic lipid content (Dark Agouti (DA) rats) | hepatic steatosis (Dark Agouti (DA) rats; 8 weeks, plasma concentrations similar to those causing hepatotoxicity in humans) | distribution into liver, pure enantiomer compared to the racemic formulation [3, 5] | plasma concentration [3] | EC50 (human neutrophil NOX2) | neural sensory function (Von Frey hairs) (Dark Agouti rats) | tissue distribution, pure enantiomer vs as part of the racemic formulation [3, 5] | PDH deactivation (measured as phosphorylated PDH) [4] | inhibition of PDH deactivation compared with (+)-perhexyline [4] | total PDH expression [4] |
| --- | --- | --- | --- | --- | --- | --- | --- | --- | --- | --- | --- | --- | --- | --- | --- | --- |
| C1CCC(C(CC2CCCCN2)C2CCCCC2)CC1 (racemic) [racemic perhexyline, 2-(2,2-dicyclohexylethyl) piperidine] | greater than 0.6 mg/L | more than 60% | not affected |  |  |  |  |  |  |  |  |  |  |  |  |  |
| C1CCC(C(CC2CCCCN2)C2CCCCC2)CC1 (single isomer, unassigned; (+)) [(+)-perhexyline, (+)-enantiomer of perhexyline] |  |  | not affected | attenuated | only partially attenuated | appeared to decrease | significantly increased | causes hepatic steatosis | significantly increased | 520 to 800 ng/mL | 1800 nM | significant decline |  |  |  |  |
| C1CCC(C(CC2CCCCN2)C2CCCCC2)CC1 (single isomer, unassigned; (-)) [(−)-perhexyline, (−)-enantiomer of perhexyline] |  |  | exacerbated | attenuated | attenuated | significantly increased | no effect |  |  | 220 to 390 ng/mL | 1300 nM | did not | similar | extremely potent inhibitor | more potent | did not affect |
